{"source": "patent EP2629618B1", "about": "“AGROCHEMICAL CO[…]” (Syngenta Limited, priority 2010, dated 2012)", "test_system": "Septoria tritici", "assay": "curative testing against Septoria tritici on wheat plants in pots, visual score of disease severity", "type": "in vivo", "conditions": "Zymoseptoria tritici, adjuvant (if any) 0.1 %w/v, spray 200l/ha, read-out: % Efficacy; for Emax at 3 µg/mL: isopyrazam 3 mg per litre; for Emax at 10 µg/mL: isopyrazam 10 mg per litre; for Emax at 30 µg/mL: isopyrazam 30 mg per litre; for Emax at 100 µg/mL: isopyrazam 100 mg per litre", "method": "The test data relate to curative testing against Septoria tritici on wheat. The wheat plants in pots are inoculated 3 to 5 days prior to spraying as indicated. The isopyrazam is formulated as an aqueous suspension concentrate formulation containing 250 g/l of isopyrazam. The suspension concentrate formulation is diluted to the concentrations of isopyrazam shown in the Tables with water prior to spraying. When adjuvant is included it is used at 0.1 %w/v in the spray dilution unless otherwise indicated. An inert non-adjuvant additive is included in all treatments to provide spray retention. The spray application is 200l/ha.\nThree assessments are made per pot of wheat with […] fully randomised. The three replicate pots are visually assessed and given a score of disease severity. The percent efficacy corresponds to the reduction in average disease severity in the treated pots compared to the untreated pots as a percentage of the average disease severity of the untreated pots. Each Table represents a side-by-side experiment.", "key": {"[1]": {"conditions": "Table 2, treatment 4 days, assessment 18 days after inoculation"}, "[2]": {"conditions": "Table 3, treatment 4 days, assessment 17 days after inoculation"}, "[3]": {"conditions": "Table 4, treatment 4 days, assessment 18 days after inoculation"}, "[4]": {"conditions": "Table 5, treatment 3 days, assessment 19 days after inoculation"}, "[5]": {"conditions": "Table 6, treatment 4 days, assessment 17 days after inoculation"}, "[6]": {"conditions": "Table 7, treatment 4 days, assessment 18 days after inoculation"}}, "note": "Read-outs that look alike come from different tables or passages of the source."}
{"smiles": "CC(C)C1C2CCC1c1c(NC(=O)c3cn(C)nc3C(F)F)cccc12", "note": "(stereo not drawn) [isopyrazam, Isopyrazam]", "values": [{"measurement": "Emax at 3 µg/mL", "setting": "[1]", "value": 32, "unit": "%"}, {"measurement": "Emax at 10 µg/mL", "setting": "[1]", "value": 36, "unit": "%"}, {"measurement": "Emax at 30 µg/mL", "setting": "[1]", "value": 47, "unit": "%"}, {"measurement": "Emax at 100 µg/mL", "setting": "[1]", "value": 41, "unit": "%"}, {"measurement": "Emax at 3 µg/mL", "setting": "[2]", "value": 17.9, "unit": "%"}, {"measurement": "Emax at 10 µg/mL", "setting": "[2]", "value": -0.53, "unit": "%"}, {"measurement": "Emax at 30 µg/mL", "setting": "[2]", "value": 10, "unit": "%"}, {"measurement": "Emax at 100 µg/mL", "setting": "[2]", "value": 8.9, "unit": "%"}, {"measurement": "Emax at 3 µg/mL", "setting": "[3]", "value": 41, "unit": "%"}, {"measurement": "Emax at 10 µg/mL", "setting": "[3]", "value": 39, "unit": "%"}, {"measurement": "Emax at 30 µg/mL", "setting": "[3]", "value": 29, "unit": "%"}, {"measurement": "Emax at 100 µg/mL", "setting": "[3]", "value": 25, "unit": "%"}, {"measurement": "Emax at 3 µg/mL", "setting": "[4]", "value": 8.8, "unit": "%"}, {"measurement": "Emax at 10 µg/mL", "setting": "[4]", "value": 9.4, "unit": "%"}, {"measurement": "Emax at 30 µg/mL", "setting": "[4]", "value": 14, "unit": "%"}, {"measurement": "Emax at 100 µg/mL", "setting": "[4]", "value": 0.59, "unit": "%"}, {"measurement": "Emax at 3 µg/mL", "setting": "[5]", "value": 9.1, "unit": "%"}, {"measurement": "Emax at 10 µg/mL", "setting": "[5]", "value": 6.8, "unit": "%"}, {"measurement": "Emax at 30 µg/mL", "setting": "[5]", "value": 19, "unit": "%"}, {"measurement": "Emax at 100 µg/mL", "setting": "[5]", "value": 14, "unit": "%"}, {"measurement": "Emax at 3 µg/mL", "setting": "[6]", "value": 5.1, "unit": "%"}, {"measurement": "Emax at 10 µg/mL", "setting": "[6]", "value": 15, "unit": "%"}, {"measurement": "Emax at 30 µg/mL", "setting": "[6]", "value": -18, "unit": "%"}, {"measurement": "Emax at 100 µg/mL", "setting": "[6]", "value": 32, "unit": "%"}]}
